Patent publication US8940781B2, “Pesticidal composition and its use” (Sumitomo Chemical Company, Limited, priority 2010, dated 2015)

Test system: Rhizoctonia solani
Test: Soybean seed treatment test in soil contaminated by Rhizoctonia solani (disease control efficacy)
Format: in vivo, Rhizoctonia solani on soybean (variety: Natto shoryu)
Conditions: seed treatment of soybean; carboxamide compound alone 0.2 g/100 kg of seeds; cultivated 20 days in contaminated soil; versus non-treated plot
Experimental: A cyclohexanone solution (100 microL) containing prescribed amount (weight) of a test compound was applied on seeds of soybean (variety: Natto shoryu) (10 g) by using a rotary apparatus for seed treatment (Seed dresser, manufactured by Hans-Ulrich Hege GmbH).
One day after the application, plastic pot was filled with soil contaminated by Rhizoctonia solani, and the seeds treated with the test compounds were seeded in the soil and cultivated in a glass-greenhouse for 20 days (hereinafter referred to as “treated plot”).
Thereafter, the presence of disease caused by Rhizoctonia solani in the young plants which germinated from each seed was observed and disease severity was calculated according to the following calculation formula (1).
On the other hand, seeds of soybean which were not treated as above were cultivated in the same way as above (hereinafter referred to as “non-treated plot”) and the disease severity in the “non-treated plot” was calculated in the same way as the above “treated plot”. On the basis of the above disease severity in “treated plot” and “non-treated plot”, efficacy in “treated plot” was evaluated according to the following calculation formula (2). […]

SMILES | efficacy (%)
Cc1nn(C)c(C)c1C(=O)Nc1cccc2c1C(C)CC2(C)C (centres unmarked) [carboxamide compound (5)] | 15.8%
CC1CC(C)(C)c2cccc(NC(=O)c3cn(C)nc3C(F)F)c21 (centres unmarked) [carboxamide compound (1)] | 47.4%
